Test results reported in US8735382B2, “Infusion and injection solution of levodopa” (Dizlin Medical Design AB, priority 2004, dated 2014).
Entries after “also recorded” stand apart in the source; their conditions may differ.

Columns and labels:
patient = assay: Subcutaneous continuous infusion of Levodopa in a patient; assay type: in vivo, human
Text: Tests have been made with subcutaneous infusion. […] The patient was further treated intravenously another day, with continuous Levodopa infusion.

[1] = cited from earlier work
PD patients = assay: Continuous intravenous infusion of Levodopa in PD patients; assay type: in vivo, human
Protocol: Continuous infusion of Levodopa has been given to PD patients during 12 hours a day for 10 days. The daily dosage of Levodopa was 608 mg and the infusion rate was 51 mg/h. Fifty % of the patients received traditional oral administration of Carbidopa and 50% received Benserazide.

[2] = dissolved in HCl and diluted with glucose, Levodopa only active ingredient; cited from earlier work
[3] = Solubility of Levodopa in HCl and after raising the pH with glucose; assay type: physicochemical
Protocol: Levodopa can be dissolved in HCl up to 100 mg/mL without any precipitation. To raise the pH with glucose in a way according to the invention and still get a stabile solution, it is possible to obtain 10 mg/mL Levodopa, and with 2 mg/mL Carbidopa addition 20 mg/mL Levodopa. A precipitate appears at 30 mg/mL Levodopa in the presence of 3 mg/mL Carbidopa. The steps of producing the solutions of the invention are made rather quickly up to the addition of glucose.

In the case of N[C@@H](Cc1ccc(O)c(O)c1)C(=O)O [Levodopa, 3-(3,4-dihydroxiphenyl)-L-alanine], the “Levodopa blood concentrations during the day” value (patient; same patient, one day of continuous intravenous infusion) is reported as “some fluctuations of the Levodopa blood concentrations occurred”, the clinical effect (patient; subcutaneous infusion) is reported as “positive clinical effect; also recorded: good clinical effect” and the “distribution of Levodopa to the blood” value (patient; subcutaneous infusion) is reported as “fast distribution of Levodopa to the blood with measurable concentrations”. The “dose dependence of response” value (patient; subcutaneous infusions, one patient) was “responded in a dose dependant manner”, the “delay in concentration levels between plasma and CNS” value ([1]; in vivo) was “about 90 minutes” and the “fraction of the total dose that enters the blood circulation” value ([1]; oral administration) was “approximately 10%”. The “follow-up time at which the long-term effect was stable” value (PD patients; after the concluded infusion) was 6-10 months, the “clinical fluctuations (dyskinesia and bradykinesia)” value (PD patients; intravenous, 12 hours a day for 10 days, 608 mg daily, seventeen patients, preliminary) was “both bradykinesia and above all dyskinesia decline; also recorded: pronounced decrease in clinical fluctuations” and the “duration of the long-lasting effect” value (PD patients; intravenous, 12 hours for 10 days) was “at least 5 months”. The “dyskinesia during infusion treatment, single case” value (PD patients; person, PD for 20 years) was “dyskinesia disappeared almost completely”, the “therapeutic interval from analysis of Levodopa in plasma” value (PD patients; plasma, not uniform in the material) was “widening of the therapeutic interval” and the “required oral Levodopa dosage, post-treatment (mean)” value (PD patients; seventeen patients, after intravenous infusion treatment) was 773 mg/day. For the same compound, the “required oral Levodopa dosage, pre-treatment (mean)” value (PD patients; seventeen patients, before intravenous infusion treatment) was 1003 mg/day, the “Levodopa concentration above which Levodopa precipitates” value [2] was over 5 mg/mL and the “Levodopa concentration dissolved without any precipitation” value ([3]; in HCl) was “up to 100 mg/mL”. The “Levodopa concentration at which a precipitate appears” value ([3]; in the presence of 3 mg/mL Carbidopa) was 30 mg/mL, the “Levodopa concentration obtainable as stabile solution” value ([3]; pH raised with glucose according to the invention, no Carbidopa) was 10 mg/mL and the “Levodopa concentration obtainable as stabile solution” value ([3]; pH raised with glucose, with 2 mg/mL Carbidopa addition) was 20 mg/mL.
